Experimental data: ChEMBL document CHEMBL1201862, “PubChem BioAssay data set” (2004)
Active and inactive are the calls of the source.

Columns and labels:
[1] = molecular target: T1, Mannose-6-phosphate isomerase (Homo sapiens, UniProt P34949); experiment: PMI enzyme inhibitors, confirmation, biochemical, fluorescence intensity (AID 1535)
T1 sequence (P34949 whole entry): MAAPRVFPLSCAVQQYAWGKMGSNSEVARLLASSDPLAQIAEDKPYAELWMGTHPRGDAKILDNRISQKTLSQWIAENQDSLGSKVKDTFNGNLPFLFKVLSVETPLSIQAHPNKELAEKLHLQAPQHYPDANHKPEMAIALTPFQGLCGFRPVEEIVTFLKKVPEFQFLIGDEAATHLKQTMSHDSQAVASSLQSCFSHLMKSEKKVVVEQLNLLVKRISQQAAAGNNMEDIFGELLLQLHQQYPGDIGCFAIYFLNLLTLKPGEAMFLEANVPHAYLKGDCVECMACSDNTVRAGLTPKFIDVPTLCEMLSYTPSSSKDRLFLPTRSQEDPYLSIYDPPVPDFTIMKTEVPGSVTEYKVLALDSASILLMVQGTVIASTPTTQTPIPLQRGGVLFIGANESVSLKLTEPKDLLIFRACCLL

Aspartyl aminopeptidase = Aspartyl aminopeptidase (Plasmodium falciparum 3D7, UniProt Q8I2J3); experiment: Counterscreen for inhibitors of M1 and M17 aminopeptidases: QFRET-based biochemical high throughput dose response assay for inhibitors of the Plasmodium falciparum M18 Aspartyl Aminopeptidase (PFM18AAP). [Related PubChem assays: 1619 (Screening assay (M17LAP inhibitors).), 1445 (Screening assay (M1AAP inhibitors).)]
[2] = molecular target: Peroxisome proliferator-activated receptor gamma/Nuclear receptor coactivator 2 (Homo sapiens, UniProt P37231); experiment: (§1) TR-FRET dose response biochemical High Throughput Screening assay for agonists of the steroid receptor coactivator 2 (SRC-2) recruitment by the peroxisome proliferator-activated receptor gamma (PPAR gamma): non-selective agonists. [Related pubchem assays: 1297, 1032 ]; type: functional
Leucine aminopeptidase = molecular target: T2, Leucine aminopeptidase (Plasmodium falciparum 3D7, UniProt Q8IL11); experiment: P. falciparum M17LAP inhibitors, primary screen, biochemical, fluorogenic H-Leu-NHMec substrate, 1536-well (AID 1619); type: functional
T2 sequence (Q8IL11 whole entry): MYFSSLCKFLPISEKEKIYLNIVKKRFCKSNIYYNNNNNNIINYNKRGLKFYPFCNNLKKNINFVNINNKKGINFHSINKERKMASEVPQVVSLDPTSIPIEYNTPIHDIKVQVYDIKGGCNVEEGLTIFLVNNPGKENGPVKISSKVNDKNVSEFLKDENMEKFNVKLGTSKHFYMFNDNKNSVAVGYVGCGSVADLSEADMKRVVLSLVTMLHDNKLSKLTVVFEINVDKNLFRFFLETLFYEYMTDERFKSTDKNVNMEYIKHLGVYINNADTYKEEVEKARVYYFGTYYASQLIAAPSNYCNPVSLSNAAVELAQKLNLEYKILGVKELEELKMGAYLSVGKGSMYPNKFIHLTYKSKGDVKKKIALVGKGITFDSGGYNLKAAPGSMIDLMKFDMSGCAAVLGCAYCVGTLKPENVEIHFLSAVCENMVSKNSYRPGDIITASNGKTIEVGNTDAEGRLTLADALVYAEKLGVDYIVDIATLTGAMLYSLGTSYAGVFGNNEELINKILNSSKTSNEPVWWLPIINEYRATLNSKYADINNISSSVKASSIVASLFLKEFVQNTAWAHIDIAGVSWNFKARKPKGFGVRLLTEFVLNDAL

[3] = molecular target: Peroxisome proliferator-activated receptor gamma/Nuclear receptor coactivator 1 (Homo sapiens, UniProt P37231); experiment: as §1, with “1 (SRC-1)” for “2 (SRC-2)”, “assays (depositor defined):AID1300, AID1808, AID504735, AID631]” for “assays: 1297, 1032 ]”; type: protein assay
[4] = molecular target: Peroxisome proliferator-activated receptor gamma/Nuclear receptor coactivator 3 (Homo sapiens, UniProt P37231); experiment: as §1, with “3 (SRC-3)” for “2 (SRC-2)”, “1301 (Confirmation screen.), 1048 (Primary screen.)]” for “1297, 1032 ]”; type: functional
[5] = molecular target: FAD-linked sulfhydryl oxidase ALR (Homo sapiens, UniProt P55789); experiment: inhibitors of human ALR sulfhydryl oxidase, dose response, biochemical, H2O2 detection, luminescence, cherry-pick (AID 493248)
Phosphomannomutase 2 = Phosphomannomutase 2 (Homo sapiens, UniProt O15305); experiment: Counter screen SAR assay for PMM2 inhibitors via a fluorescence intensity assay. [Related pubchem assays (depositor defined):AID1545, AID1574]
Procathepsin L = Procathepsin L (Homo sapiens, UniProt P07711); experiment: cathepsin L inhibitors, dose response, counter-screen for M1/M17 aminopeptidase inhibitor project, biochemical, QFRET, 1536-well (AID 2214)
[6] = molecular target: T3, E3 ubiquitin-protein ligase XIAP (Homo sapiens, UniProt P98170); experiment: Counter Screen using XIAP-Bir3 for Chemical Antagonists of Bir1/2 domains of IAP-family anti-apoptotic proteins. [Related pubchem assays (depositor defined):AID1018, AID1449, AID1514, AID1638, AID1749, AID1750, AID488957, AID488963]
[7] = molecular target: T4, Microphthalmia-associated transcription factor (Homo sapiens, UniProt O75030); experiment: TRPM1 promoter luciferase signal decrease, dose response, MITF inhibitor project, cell-based, SK-MEL-5, cherry-picked, set 4 (AID 493102); type: functional
T4 sequence (O75030 whole entry): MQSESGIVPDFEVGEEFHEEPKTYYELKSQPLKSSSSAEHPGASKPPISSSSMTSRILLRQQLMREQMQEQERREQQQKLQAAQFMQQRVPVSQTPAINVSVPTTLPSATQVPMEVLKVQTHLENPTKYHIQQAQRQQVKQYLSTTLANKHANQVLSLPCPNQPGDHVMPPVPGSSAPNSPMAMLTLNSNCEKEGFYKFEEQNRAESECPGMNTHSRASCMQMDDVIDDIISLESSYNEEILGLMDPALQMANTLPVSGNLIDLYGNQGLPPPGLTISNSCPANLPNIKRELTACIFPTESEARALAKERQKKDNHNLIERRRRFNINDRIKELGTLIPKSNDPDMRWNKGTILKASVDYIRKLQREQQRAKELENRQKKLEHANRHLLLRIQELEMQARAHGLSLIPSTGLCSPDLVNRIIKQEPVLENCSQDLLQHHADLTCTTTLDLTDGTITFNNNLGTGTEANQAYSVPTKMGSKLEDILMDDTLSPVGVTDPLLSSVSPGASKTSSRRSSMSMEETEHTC

[8] = molecular target: T3, E3 ubiquitin-protein ligase XIAP; experiment: XIAP antagonists, biochemical, IAP family, fluorescence polarization (AID 1018); type: functional
[9] = molecular target: T4, Microphthalmia-associated transcription factor; experiment: MITF Measured in Cell-Based System Using Plate Reader - 2084-01_Inhibitor_DoseNoFile_CherryPick_Activity_Set2. [Related pubchem assays (depositor defined):AID488944]; type: functional
[10] = molecular target: T4, Microphthalmia-associated transcription factor; experiment: TRPM1 promoter luciferase signal decrease, dose response, MITF inhibitor project, cell-based, SK-MEL-5, cherry-picked, set 3 (AID 493073); type: functional
Coagulation factor XII = molecular target: T5, Coagulation factor XII (Homo sapiens, UniProt P00748); experiment: Factor XIIa Dose Response Confirmation from Single Well HTS. [Related pubchem assays (depositor defined):AID701]; type: functional
T5 sequence (P00748 whole entry): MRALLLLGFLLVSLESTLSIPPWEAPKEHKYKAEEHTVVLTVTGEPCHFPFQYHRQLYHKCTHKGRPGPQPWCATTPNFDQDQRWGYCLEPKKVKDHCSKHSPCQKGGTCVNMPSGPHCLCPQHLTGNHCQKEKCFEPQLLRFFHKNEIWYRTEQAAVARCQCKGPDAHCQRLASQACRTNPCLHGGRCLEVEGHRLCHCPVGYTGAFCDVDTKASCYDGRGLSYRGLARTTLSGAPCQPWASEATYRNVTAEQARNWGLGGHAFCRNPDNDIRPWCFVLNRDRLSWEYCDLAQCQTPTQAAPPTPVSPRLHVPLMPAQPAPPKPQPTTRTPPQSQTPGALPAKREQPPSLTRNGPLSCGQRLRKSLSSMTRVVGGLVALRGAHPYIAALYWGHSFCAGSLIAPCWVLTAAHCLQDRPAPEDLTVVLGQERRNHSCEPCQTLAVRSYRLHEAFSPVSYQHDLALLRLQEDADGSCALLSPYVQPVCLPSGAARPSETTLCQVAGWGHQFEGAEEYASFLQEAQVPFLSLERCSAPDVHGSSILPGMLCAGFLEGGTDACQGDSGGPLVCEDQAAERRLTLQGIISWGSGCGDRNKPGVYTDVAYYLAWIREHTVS

T-cell = experiment: inhibitors of CD8+ T cell–vesicle binding, dose response, mouse 2C CD8+ T cells, flow cytometry (AID 485284); type: functional
Hexokinase = Hexokinase (Trypanosoma brucei, UniProt Q38C41); experiment: Confirmation assay for inhibitors of Trypanosoma brucei hexokinase 1-Analogue-first series. [Related pubchem assays (depositor defined):AID1430, AID1632, AID2516, AID2560, AID2579, AID2600, AID449725, AID492951]; type: functional
[11] = molecular target: Glyceraldehyde-3-phosphate dehydrogenase (Homo sapiens, UniProt P04406)
[12] = molecular target: T6, Alkaline phosphatase, tissue-nonspecific isozyme (Homo sapiens, UniProt P05186); experiment: human TNAP enzyme inhibitors, SAR follow-up, biochemical, luminescent, dose response (AID 1056)
T6 sequence (P05186 whole entry): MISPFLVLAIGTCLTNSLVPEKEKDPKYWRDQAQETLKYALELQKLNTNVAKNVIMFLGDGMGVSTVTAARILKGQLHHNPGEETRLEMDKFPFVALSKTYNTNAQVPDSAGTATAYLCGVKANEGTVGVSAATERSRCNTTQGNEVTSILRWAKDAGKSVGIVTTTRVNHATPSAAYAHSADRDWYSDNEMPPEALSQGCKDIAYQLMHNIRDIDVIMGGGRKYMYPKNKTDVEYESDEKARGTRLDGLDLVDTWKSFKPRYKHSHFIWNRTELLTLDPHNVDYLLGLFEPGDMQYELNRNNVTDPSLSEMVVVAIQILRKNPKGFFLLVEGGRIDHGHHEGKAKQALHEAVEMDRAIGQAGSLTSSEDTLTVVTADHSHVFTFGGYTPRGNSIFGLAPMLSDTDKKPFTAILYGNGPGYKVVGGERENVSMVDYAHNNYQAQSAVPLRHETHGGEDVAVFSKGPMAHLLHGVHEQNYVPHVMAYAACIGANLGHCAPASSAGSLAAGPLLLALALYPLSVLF

[13] = molecular target: Alkaline phosphatase, placental type (Homo sapiens, UniProt P05187); experiment: PLAP enzyme inhibitors, confirmation, biochemical, luminescence (AID 1512); type: functional
[14] = molecular target: Type-1 angiotensin II receptor (Homo sapiens, UniProt P30556); experiment: AT1 receptor agonists, dose response, selectivity assay for APJ receptor agonist project, cell-based, uHTS hits (AID 488865); type: functional;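 further: beta-arrestin recruitment to AT1 measured by enzyme fragment complementation luminescence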
[15] = Luminescence Cell-Based Dose Response HTS to Identify Inhibitors of 5'UTR Stem-Loop Driven Prion Protein mRNA Translation in H4 Neuroglioblastoma Cells. [Related pubchem assays: 1827 (Project Summary), 1813 (Primary HTS)]; type: functional
[16] = inhibitors of firefly luciferase expression or activity, dose response, H4 neuroglioma cells, luminescence (AID 1990); type: functional, cell-based
[17] = inhibitors of SNCA 5'UTR-driven reporter translation, confirmation, H4 neuroglioma cells, luminescence (AID 1988); type: functional, cell-based
[18] = molecular target: T7, Kappa-type opioid receptor (Homo sapiens, UniProt P41145); experiment: SAR analysis of small molecule antagonists of the kappa opioid receptor via a luminescent beta-arrestin assay - Set 3. [Related pubchem assays (depositor defined):AID1777, AID1778, AID1785, AID1786, AID1966, AID2133, AID2136, AID2285, AID2495]; type: functional
[19] = molecular target: T7, Kappa-type opioid receptor; experiment: SAR analysis of Antagonists of the Kappa Opioid Receptor (KOR) using an Image-Based Assay - Set 4. [Related pubchem assays (depositor defined):AID1777, AID1785]; type: functional
Mu-type opioid receptor = Mu-type opioid receptor (Homo sapiens, UniProt P35372); experiment: SAR Analysis of Antagonists of the MOR Receptor using an Image-Based Assay - Set 3. [Related pubchem assays (depositor defined):AID1777, AID1785, AID1786, AID1966, AID2133, AID2136, AID2284, AID2285, AID2420]; type: functional
[20] = molecular target: Delta-type opioid receptor (Homo sapiens, UniProt P41143); experiment: SAR Analysis of Antagonists of the DOR Receptor using an Image-Based Assay - Set 3. [Related pubchem assays (depositor defined):AID1777, AID1785]; type: functional;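 further: U2OS cells expressing DOR1 and beta-arrestin GFP stimulated with 100 nM SNC80; imaging of GFP-tagged beta-arrestin moving into spots after receptor activation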
Chain of Delta-type opioid receptor (P41143 whole entry): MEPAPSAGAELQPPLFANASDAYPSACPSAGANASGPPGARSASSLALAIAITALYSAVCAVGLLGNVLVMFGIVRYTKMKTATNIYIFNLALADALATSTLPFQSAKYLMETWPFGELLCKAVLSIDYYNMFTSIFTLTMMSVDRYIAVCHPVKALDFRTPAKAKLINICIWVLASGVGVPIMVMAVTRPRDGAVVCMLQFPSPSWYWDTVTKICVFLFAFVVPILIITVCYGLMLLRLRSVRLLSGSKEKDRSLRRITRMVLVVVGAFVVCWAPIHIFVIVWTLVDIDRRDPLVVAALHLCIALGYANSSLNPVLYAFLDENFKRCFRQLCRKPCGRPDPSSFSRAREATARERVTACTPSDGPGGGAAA

T3 sequence (P98170 whole entry): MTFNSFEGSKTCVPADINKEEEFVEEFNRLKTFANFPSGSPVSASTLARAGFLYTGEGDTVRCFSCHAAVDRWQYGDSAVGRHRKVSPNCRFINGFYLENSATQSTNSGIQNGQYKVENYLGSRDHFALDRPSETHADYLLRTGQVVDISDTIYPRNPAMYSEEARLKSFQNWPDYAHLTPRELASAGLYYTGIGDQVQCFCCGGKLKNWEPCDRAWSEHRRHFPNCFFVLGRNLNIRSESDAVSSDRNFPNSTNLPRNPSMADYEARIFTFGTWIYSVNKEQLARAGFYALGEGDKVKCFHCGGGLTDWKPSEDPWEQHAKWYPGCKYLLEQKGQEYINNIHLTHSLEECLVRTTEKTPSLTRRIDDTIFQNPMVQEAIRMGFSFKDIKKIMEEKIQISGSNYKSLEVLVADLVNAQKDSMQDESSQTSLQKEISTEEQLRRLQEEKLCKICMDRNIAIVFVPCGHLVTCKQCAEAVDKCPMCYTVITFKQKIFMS
T7 sequence (P41145 whole entry): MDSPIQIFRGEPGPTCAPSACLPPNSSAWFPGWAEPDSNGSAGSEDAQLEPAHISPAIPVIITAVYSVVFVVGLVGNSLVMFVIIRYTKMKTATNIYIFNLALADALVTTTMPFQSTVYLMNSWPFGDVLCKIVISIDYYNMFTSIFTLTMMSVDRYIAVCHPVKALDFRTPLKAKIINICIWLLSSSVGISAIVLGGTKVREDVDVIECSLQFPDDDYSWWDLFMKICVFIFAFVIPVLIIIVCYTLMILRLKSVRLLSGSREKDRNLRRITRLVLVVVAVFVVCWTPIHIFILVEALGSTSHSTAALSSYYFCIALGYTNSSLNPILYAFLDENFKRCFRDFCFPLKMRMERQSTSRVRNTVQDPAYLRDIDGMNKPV
Chain of FAD-linked sulfhydryl oxidase ALR (P55789 whole entry): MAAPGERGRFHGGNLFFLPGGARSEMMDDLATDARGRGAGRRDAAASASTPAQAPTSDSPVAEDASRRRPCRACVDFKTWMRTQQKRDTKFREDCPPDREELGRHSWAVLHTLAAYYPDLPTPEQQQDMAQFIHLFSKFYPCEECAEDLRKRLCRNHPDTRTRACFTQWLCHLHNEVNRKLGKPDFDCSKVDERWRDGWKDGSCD
Chain of Glyceraldehyde-3-phosphate dehydrogenase (P04406 whole entry): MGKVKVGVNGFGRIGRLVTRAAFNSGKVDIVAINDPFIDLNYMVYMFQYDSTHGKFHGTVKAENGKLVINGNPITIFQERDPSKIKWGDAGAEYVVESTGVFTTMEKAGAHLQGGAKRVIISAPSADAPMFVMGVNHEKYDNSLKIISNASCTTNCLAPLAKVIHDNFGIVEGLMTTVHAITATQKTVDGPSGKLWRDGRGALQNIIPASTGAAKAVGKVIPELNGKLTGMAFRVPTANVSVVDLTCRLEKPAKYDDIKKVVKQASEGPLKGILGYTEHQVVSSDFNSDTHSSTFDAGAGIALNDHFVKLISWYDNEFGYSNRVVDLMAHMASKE
Chain of Phosphomannomutase 2 (O15305 whole entry): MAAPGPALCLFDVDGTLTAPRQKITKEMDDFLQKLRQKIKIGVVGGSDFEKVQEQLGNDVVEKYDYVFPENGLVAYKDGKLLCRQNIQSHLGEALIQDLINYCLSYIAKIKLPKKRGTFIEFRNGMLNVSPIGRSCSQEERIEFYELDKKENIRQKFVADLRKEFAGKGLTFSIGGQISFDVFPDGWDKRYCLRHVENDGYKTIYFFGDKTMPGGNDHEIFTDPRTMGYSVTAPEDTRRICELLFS
Chain of Peroxisome proliferator-activated receptor gamma/Nuclear receptor coactivator 3 (P37231 whole entry): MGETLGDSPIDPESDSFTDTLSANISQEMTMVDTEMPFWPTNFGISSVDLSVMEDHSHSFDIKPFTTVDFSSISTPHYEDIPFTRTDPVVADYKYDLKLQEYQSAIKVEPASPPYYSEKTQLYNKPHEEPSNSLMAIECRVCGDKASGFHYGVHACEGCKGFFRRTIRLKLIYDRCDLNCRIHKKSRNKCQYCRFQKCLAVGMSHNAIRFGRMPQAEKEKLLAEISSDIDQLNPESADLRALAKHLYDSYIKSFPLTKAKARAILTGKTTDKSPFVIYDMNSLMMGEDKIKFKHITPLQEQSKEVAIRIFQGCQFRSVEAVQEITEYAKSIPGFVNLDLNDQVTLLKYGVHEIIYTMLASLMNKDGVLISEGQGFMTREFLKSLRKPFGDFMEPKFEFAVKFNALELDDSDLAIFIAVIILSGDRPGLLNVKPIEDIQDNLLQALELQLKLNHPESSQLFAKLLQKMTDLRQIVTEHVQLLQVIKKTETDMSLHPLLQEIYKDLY
Chain of Peroxisome proliferator-activated receptor gamma/Nuclear receptor coactivator 3 (Q9Y6Q9 whole entry, further chain): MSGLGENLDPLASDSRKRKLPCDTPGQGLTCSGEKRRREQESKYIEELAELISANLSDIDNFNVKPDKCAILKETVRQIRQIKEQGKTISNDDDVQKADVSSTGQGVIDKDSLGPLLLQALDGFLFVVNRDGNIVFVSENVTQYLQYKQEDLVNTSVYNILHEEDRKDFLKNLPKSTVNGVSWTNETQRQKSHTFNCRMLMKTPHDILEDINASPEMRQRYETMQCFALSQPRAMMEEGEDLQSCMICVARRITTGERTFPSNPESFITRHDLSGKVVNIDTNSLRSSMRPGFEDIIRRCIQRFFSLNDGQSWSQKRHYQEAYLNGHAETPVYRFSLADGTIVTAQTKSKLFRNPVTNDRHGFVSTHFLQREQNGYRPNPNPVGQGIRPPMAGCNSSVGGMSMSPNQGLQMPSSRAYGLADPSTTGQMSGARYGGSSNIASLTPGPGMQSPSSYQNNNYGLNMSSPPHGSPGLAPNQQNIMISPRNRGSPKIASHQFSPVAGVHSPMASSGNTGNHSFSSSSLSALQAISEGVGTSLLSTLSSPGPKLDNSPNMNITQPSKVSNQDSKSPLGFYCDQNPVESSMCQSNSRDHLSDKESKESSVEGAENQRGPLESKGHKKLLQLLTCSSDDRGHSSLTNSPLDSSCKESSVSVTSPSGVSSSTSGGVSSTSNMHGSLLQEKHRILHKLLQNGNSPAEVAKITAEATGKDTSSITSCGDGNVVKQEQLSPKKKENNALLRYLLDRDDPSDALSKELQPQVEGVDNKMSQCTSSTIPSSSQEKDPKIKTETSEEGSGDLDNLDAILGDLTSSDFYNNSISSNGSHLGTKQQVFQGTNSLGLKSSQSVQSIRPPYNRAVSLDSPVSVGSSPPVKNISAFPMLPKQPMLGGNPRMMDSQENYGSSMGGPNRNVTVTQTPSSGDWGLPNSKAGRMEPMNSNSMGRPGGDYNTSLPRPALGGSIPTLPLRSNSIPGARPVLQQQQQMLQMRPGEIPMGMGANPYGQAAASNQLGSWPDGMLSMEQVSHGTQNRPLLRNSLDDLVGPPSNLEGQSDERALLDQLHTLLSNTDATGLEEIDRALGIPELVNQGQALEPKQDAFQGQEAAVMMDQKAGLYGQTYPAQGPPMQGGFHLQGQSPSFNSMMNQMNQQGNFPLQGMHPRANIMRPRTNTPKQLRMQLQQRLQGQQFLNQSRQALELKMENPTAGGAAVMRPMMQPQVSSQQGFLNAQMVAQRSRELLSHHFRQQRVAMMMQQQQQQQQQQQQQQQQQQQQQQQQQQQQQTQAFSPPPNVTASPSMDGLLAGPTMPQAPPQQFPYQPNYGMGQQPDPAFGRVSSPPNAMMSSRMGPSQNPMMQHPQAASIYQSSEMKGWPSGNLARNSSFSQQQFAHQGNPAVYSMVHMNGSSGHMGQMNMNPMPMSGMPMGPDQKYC
Chain of Hexokinase (Q38C41 whole entry): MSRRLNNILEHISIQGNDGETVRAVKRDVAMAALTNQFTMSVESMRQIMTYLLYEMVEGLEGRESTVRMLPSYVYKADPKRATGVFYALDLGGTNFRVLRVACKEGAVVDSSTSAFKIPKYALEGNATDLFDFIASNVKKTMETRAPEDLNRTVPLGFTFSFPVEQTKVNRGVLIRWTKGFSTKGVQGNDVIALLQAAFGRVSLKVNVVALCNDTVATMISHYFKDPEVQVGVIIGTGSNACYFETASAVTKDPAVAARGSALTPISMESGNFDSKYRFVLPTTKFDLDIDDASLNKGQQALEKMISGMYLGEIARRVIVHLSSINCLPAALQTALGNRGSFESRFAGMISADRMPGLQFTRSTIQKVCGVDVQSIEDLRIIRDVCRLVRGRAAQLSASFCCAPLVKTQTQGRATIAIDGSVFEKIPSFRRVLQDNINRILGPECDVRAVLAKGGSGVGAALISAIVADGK
Chain of Type-1 angiotensin II receptor (P30556 whole entry, the tested form may be a part): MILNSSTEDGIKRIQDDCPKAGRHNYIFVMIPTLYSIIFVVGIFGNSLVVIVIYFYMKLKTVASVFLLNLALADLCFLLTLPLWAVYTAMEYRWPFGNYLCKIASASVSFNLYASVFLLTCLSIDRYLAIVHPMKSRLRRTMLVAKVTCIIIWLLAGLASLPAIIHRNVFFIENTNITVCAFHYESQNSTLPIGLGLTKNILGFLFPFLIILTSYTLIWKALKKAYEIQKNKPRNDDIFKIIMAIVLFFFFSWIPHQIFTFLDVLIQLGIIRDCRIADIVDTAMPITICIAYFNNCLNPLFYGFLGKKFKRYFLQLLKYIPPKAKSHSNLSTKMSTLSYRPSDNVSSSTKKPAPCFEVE

Sc1n[nH]c(-c2cccc(Cl)c2)n1
IC50 [1]: 1.94 µM (active)
IC50 (Aspartyl aminopeptidase): 15.6 µM (not active)
EC50 [2]: > 79.4 µM (not active)
IC50 (Leucine aminopeptidase): 3.56 µM (active)
EC50 [3]: > 79.4 µM (inactive)
EC50 [4]: > 79.4 µM (not active)
AC50 [5]: 0.097 µM (active)
IC50 (Phosphomannomutase 2): > 100 µM (inactive)
IC50 (Procathepsin L): > 59.6 µM (not active)

Cc1cc2oc(=O)cc(C)c2cc1NC(=O)CCC(=O)O
IC50 [6]: > 100 µM (inactive)
AC50 [7]: > 350 µM (inactive)
IC50 [8]: > 100 µM (not active)
AC50 [9]: > 350 µM (inactive)
AC50 [10]: > 350 µM (inactive)

O=C(Oc1ccc2c3c(c(=O)oc2c1)CCC3)c1ccco1
IC50 (Coagulation factor XII): 6.22 µM (active)

COc1ccc(S(=O)(=O)N2CCCCC2)cc1NC(=O)c1cnc(C)cn1
EC50 (T-cell): 0.558 µM (active)

O=C(Nc1cc(Cl)ccc1C(=O)O)c1ccsc1
IC50 (Hexokinase): > 25 µM (inactive)

CSc1nnc(NC(=O)c2cc(F)c(F)c(F)c2F)[nH]1
IC50 [11]: > 100 µM (not active)
IC50 [12]: > 100 µM (inactive)
IC50 [13]: > 100 µM (inactive)

C=CCn1c(SCC(=O)N2CCN(c3ccccc3)CC2)nc2c3ccccc3nc-2c1O
EC50 [14]: > 100 µM (inactive)
EC50 [15]: 14.2 µM (active)
EC50 [16]: > 120 µM (not active)
EC50 [17]: 8.55 µM (active)

Cc1ccnc2c1n1cccc1c(=O)n2CC(=O)NCCCN1CCN(c2ccccc2)CC1
IC50 [18]: 4.95 µM (active)
IC50 [19]: 2.56 µM (active)
IC50 (Mu-type opioid receptor): 22.5 µM (inactive)
IC50 [20]: > 32 µM (inactive)
